Experimental data taken from US20250255821A1, “SOLID DISPERSIONS COMPRISING A SGC STIMULATOR” (Cyclerion Therapeutics, Inc., priority 2015, published 2025).

Assay: Solubility of Compound I in aqueous media
Format: physicochemical
Settings: pH independent

- Solubility in aqueous media: low solubility
SMILES: OC(CNc1nc(-c2cc(-c3ccon3)n(Cc3ccccc3F)n2)ncc1F)(C(F)(F)F)C(F)(F)F [Compound I, 1,1,1,3,3,3-hexafluoro-2-(((5-fluoro-2-(1-(2-fluorobenzyl)-5-(isoxazol-3-yl)-1H-pyrazol-3-yl)pyrimidin-4-yl)amino)methyl)propan-2-ol]
